# Data reported in US6897219B2, “Heteroaryl diazacycloalkanes, their preparation and use” (priority 1997, dated 2005).
# Structures can show the parent of a compound that is named as a salt. Where two headings read alike, the source gives them in different places.
# Assays:
# [1] = target: nAChR formed by the α7 subunit isoform (Rattus norvegicus, UniProt Q05941); assay: biochemical; assay type: binding
# [2] = target: nAChRs comprised of α4 and β2 subunits (Rattus norvegicus, UniProt P09483+P12390); assay: In vitro inhibition of 3H-cytisine binding
# Procedure: The predominant subtype with high affinity for nicotine is comprised of α4 and β2 subunits. nAChRs of the latter type can selectively be labelled by the nicotine agonist ^3H-cytisine.
# Tissue Preparation: Preparations are performed at 0-4° C. unless otherwise indicated. […] The homogenate is centrifuged at 27,000×g for 10 min. The supernatant is discarded and the pellet is resuspended in fresh buffer and centrifuged a second time. The final pellet is resuspended in fresh buffer (35 ml per g of original tissue) and used for binding assays.
# Assay: Aliquots of 500 μl homogenate are added to 25 μl of test solution and 25 μl of ^3H-cytisine (1 nM, final concentration), mixed and incubated for 90 min at 2° C. Non-specific binding is determined using (−)-nicotine (100 μM, final concentration). After incubation the samples are added 5 ml of ice-cold buffer and poured directly onto Whatman GF/C glass fibre filters under suction and immediately washed with 2×5 ml ice-cold buffer. The amount of radioactivity on the filters is determined by conventional liquid scintillation counting. Specific binding is total binding minus non-specific binding.
# [3] = target: T1, neuronal nicotinic receptors (α4β2 subtype high affinity site) (Rattus norvegicus, UniProt P09483+P12390); assay: In vitro inhibition of 3H-epibatidin binding
# T1 construct: The forebrain (÷cerebellum) from a male Wistar rat (150-250 g) is homogenized; from tissue; host or cells: rat forebrain (without cerebellum) membrane homogenate
# Procedure: The high affinity binding site for ^3H-epibatidin is most certainly binding to the α4β2 subtype of nicotinic receptors. The identity of the low affinity site is still unknown; does it represent a second nicotinic receptor or a second site in the same receptor.
# Tissue preparation: Preparations are performed at 0-4° C. unless otherwise indicated. The forebrain (÷cerebellum) from a male Wistar rat (150-250 g) is homogenized for 10-20 sec in 20 ml Tris, HCl (50 mM, pH 7.4) using an Ultra-Turrax homogenizer. The tissue suspension is centrifuged at 27,000×g for 10 min. The supernatant is discarded and the pellet is washed three times by centrifugation at 27,000×g for 10 min in 20 ml fresh buffer, and the final pellet is resuspended in fresh buffer (400 ml per g of original tissue) and used for binding assays.
# Assay: Aliquots of 2.0 ml homogenate are added to 0.100 ml of test solution and 0.100 ml of ^3H-epibatidin (0.3 nM, final concentration), mixed and incubated for 60 min at room temperature. Non-specific binding is determined using (−)-nicotine (30 μM, final concentration). After incubation the samples are poured directly onto Whatman GF/C glass fibre filters (presoaked in 0.1% PEI for at least 20 min) under suction and immediately washed with 2×5 ml ice-cold buffer. The amount of radioactivity on the filters is determined by conventional liquid scintillation counting. Specific binding is total binding minus non-specific binding.
# [4] = rat cerebral cortex homogenate, 1 nM 3H-cytisine, 90 min at 2° C., read-out: 3H-cytisine IC50
# [5] = rat forebrain homogenate, 0.3 nM 3H-epibatidin, 60 min at room temperature, read-out: 3H-epibatidin IC50
# nAChR formed by the α7 subunit isoform, sequence (Q05941 23-502): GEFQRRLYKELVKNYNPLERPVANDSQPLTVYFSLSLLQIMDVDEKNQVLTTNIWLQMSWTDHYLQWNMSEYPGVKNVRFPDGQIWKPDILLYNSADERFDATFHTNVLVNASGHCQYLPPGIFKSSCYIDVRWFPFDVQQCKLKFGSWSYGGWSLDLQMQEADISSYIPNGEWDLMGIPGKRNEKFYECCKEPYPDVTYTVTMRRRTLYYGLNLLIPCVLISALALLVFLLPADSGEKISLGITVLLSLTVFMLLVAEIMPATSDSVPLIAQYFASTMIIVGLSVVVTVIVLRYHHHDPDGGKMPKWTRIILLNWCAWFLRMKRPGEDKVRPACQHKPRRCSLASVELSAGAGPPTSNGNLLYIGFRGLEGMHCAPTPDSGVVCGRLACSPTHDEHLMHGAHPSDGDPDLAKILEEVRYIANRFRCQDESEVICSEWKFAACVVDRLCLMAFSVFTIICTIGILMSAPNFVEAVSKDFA
# nAChRs comprised of α4 and β2 subunits, sequence (P09483 31-630): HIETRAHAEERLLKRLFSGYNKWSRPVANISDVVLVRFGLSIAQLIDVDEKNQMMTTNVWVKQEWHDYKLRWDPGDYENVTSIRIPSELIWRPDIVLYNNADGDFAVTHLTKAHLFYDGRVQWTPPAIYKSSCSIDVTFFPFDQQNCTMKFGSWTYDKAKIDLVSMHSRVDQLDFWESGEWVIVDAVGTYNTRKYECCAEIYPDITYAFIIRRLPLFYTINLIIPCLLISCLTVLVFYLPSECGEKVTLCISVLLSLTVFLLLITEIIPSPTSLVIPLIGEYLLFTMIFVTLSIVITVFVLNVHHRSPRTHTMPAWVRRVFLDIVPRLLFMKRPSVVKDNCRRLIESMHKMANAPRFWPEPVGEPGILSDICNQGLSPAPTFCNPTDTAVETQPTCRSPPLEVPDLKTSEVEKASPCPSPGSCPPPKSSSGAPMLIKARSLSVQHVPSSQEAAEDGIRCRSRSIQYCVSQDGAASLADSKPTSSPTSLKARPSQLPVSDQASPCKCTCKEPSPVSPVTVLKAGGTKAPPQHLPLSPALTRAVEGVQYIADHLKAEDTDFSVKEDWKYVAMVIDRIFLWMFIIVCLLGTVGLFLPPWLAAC
# nAChRs comprised of α4 and β2 subunits, sequence (P12390 25-500): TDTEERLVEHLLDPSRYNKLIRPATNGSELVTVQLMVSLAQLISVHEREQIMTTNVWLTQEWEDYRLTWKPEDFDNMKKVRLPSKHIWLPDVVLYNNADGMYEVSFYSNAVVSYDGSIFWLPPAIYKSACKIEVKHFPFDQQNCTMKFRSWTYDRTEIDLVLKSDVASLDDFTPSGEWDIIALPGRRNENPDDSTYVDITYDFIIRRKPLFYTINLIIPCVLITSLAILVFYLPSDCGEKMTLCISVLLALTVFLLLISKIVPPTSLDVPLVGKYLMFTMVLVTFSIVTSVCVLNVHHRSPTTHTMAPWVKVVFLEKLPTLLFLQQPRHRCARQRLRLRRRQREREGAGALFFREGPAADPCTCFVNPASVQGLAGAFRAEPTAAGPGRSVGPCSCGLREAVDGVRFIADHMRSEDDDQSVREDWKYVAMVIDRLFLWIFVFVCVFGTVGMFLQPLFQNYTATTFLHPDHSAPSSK
# T1 sequence (P09483 31-630): as the sequence (P09483 31-630) above
# T1 sequence (P12390 25-500): as the sequence (P12390 25-500) above
SMILES,melting point,IC50 [1],other results
"Cc1ccc(N2CCCNCC2)nn1 (as salt: fumaric acid salt) [Compound 5K, 1-(6-Methyl-3-pyridazinyl)-homopiperazine]",102 to 105 °C,,
"CN1CCN(c2cncc(-c3ccccc3)c2)CC1 (as salt: fumaric acid salt) [Compound 6A, 4-Methyl-1-(5-phenyl-3-pyridyl)-piperazine]",179 to 180 °C,,
"COc1cncc(N2CCCNCCC2)c1 (as salt: fumaric acid salt) [Compound 6B, 1-(5-Methoxy-3-pyridyl)-1,5-diazacyclooctane]",158 to 160 °C,,
"CCCCOc1cncc(N2CCCN(C)CC2)c1 (as salt: fumaric acid salt) [Compound 6E, 1-(5-Butoxy-3-pyridyl)-4-methyl-homopiperazine]",127 to 129 °C,,
"CC(C)COc1cncc(N2CCCNCC2)c1 (as salt: fumaric acid salt) [Compound 6H, 1-[5-(2-Methyl-propoxy)-3-pyridyl]-homopiperazine]",121.9 to 123.3 °C,,
"CCOc1cncc(N2CCN(C)CC2)c1 (as salt: fumaric acid salt) [Compound 7A, 1-(5-Ethoxy-3-pyridyl)-4-methyl-piperazine]",162.2 to 163.7 °C,,
"Clc1ccc(N2CCCNCCC2)nn1 (as salt: fumaric acid salt) [Compound 7B, 1-(6-Chloro-3-pyridazinyl)-1,5-diazacyclooctane]",176 to 178 °C,,
"Clc1ccc(N2CCCCNCC2)nn1 (as salt: fumaric acid salt) [Compound 8B, 1-(6-Chloro-3-pyridazinyl)-1,4-diazacyclooctane]",177 to 179 °C,,
"CC(C)COc1cncc(N2CCCN(C)CC2)c1 (as salt: fumaric acid salt) [Compound 8E, 4-Methyl-1-[5-(2-methyl-propyloxy)-3-pyridyl]-homopiperazine]",145.7 to 146.9 °C,,
"Brc1ccc(N2CCCNCC2)cn1 (as salt: fumaric acid salt) [Compound 8K, 1-(6-Bromo-3-pyridyl)-homopiperazine]",164 to 166 °C,,
"CCOc1cncc(N2CCN(CC)CC2)c1 (as salt: fumaric acid salt) [Compound 9D, 1-(5-Ethoxy-3-pyridyl)-4-ethyl-piperazine]",144.8 to 145.9 °C,,
"CN1CCCN(c2cncc(OCC3CC3)c2)CC1 (as salt: fumaric acid salt) [Compound 9E, 1-(5-Cyclopropylmethoxy-3-pyridyl)-4-methyl-homopiperazine]",160.4 to 161.9 °C,,
"c1ncc(N2CCCNCC2)cc1OCC1CC1 (as salt: fumaric acid salt) [Compound 9H, 1-(5-Cyclopropylmethoxy-3-pyridyl)-homopiperazine]",154 to 156 °C,,
"CCCOc1cncc(N2CCCN(C)CC2)c1 (as salt: fumaric acid salt) [Compound 10E, 4-Methyl-1-(5-propyloxy-3-pyridyl)-homopiperazine]",148.8 to 153.5 °C,,
"CCCOc1cncc(N2CCCNCC2)c1 (as salt: fumaric acid salt) [Compound 10H, 1-(5-Propyloxy-3-pyridyl)-homopiperazine]",156.2 to 157.8 °C,,
COc1cncc(N2CCCNC(C)CC2)c1 (centres unmarked) (as salt: fumaric acid salt) [Compound 11A],137 to 139 °C,,
"CCCCCCOc1cncc(N2CCCN(C)CC2)c1 (as salt: fumaric acid salt) [Compound 11E, 1-(5-Hexyloxy-3-pyridyl)-4-methyl-homopiperazine]",128.7 to 130.8 °C,,
"CC(C)CCOc1cncc(N2CCCN(C)CC2)c1 (as salt: fumaric acid salt) [Compound 12E, 4-Methyl-1-[5-(3-methyl-butoxy)-3-pyridyl]-homopiperazine]",130.4 to 131.9 °C,,
"CN1CCCN(c2cncc(OCC3CCCCC3)c2)CC1 (as salt: fumaric acid salt) [Compound 14E, 1-(5-Cyclohexylmethoxy-3-pyridyl)-4-methyl-homopiperazine]",160.4 to 162 °C,,
"CCCCCOc1cncc(N2CCCN(C)CC2)c1 (as salt: fumaric acid salt) [Compound 15E, 4-Methyl-1-(5-pentyloxy-3-pyridyl)-homopiperazine]",129 to 130.8 °C,,
"CCCCCCCOc1cncc(N2CCCN(C)CC2)c1 (as salt: fumaric acid salt) [Compound 16E, 1-(5-Heptyloxy-3-pyridyl)-4-methyl-homopiperazine]",120.2 to 121.8 °C,,

SMILES,melting point,IC50 [1],other results
"C/C=C/Oc1cncc(N2CCCN(C)CC2)c1 (as salt: fumaric acid salt) [Compound 17E, trans-4-Methyl-1-(5-propyl-1-en-oxy-3-pyridyl)-homopiperazine]",126 to 128 °C,,
"CN1CCCN(c2cncc(SCc3ccccc3)c2)CC1 (as salt: fumaric acid salt) [Compound 18E, 4-Methyl-1-(5-thiobenzyl-3-pyridyl)-homopiperazine]",131 to 133 °C,,
"CN1CCCN(c2cncc(-c3cccnc3)c2)CC1 (as salt: fumaric acid salt) [Compound 19E, 4-Methyl-1-[5-(3-pyridyl)-3-pyridyl]-homopiperazine]",165.5 to 167.5 °C,,
"CN1CCCN(c2cncc(OC3CCCC3)c2)CC1 (as salt: fumaric acid salt) [Compound 25E, 1-(5-Cyclopentyloxy-3-pyridyl)-4-methyl-homopiperazine]",123 to 125 °C,,
Oc1cncc(N2CCCNCC2)c1 (as salt: hydrochloric acid salt),290 to 300 °C,,
"CN1CCN(c2cccnc2)CC1 [Compound 1A, 4-Methyl-1-(3-pyridyl)-piperazine]",,6800 nM,
"c1cncc(N2CCNCC2)c1 [Compound 1B, 1-(3-Pyridyl)-piperazine]",,> 30000 nM,"IC50 [2, 4]: 130 nM; IC50 [3, 5]: 630 nM"
"CCOc1cncc(N2CCNCC2)c1 [Compound 1D, 1-(5-Ethoxy-3-pyridyl)piperazine]",,> 30000 nM,"IC50 [2, 4]: 500 nM; IC50 [3]: 1000 nM"
"CN1CCCN(c2cccnc2)CC1 [Compound 1E, 4-Methyl-1-(3-pyridyl)-homopiperazine]",,4600 nM,"IC50 [2, 4]: 150 nM; IC50 [3]: 400 nM"
"c1cncc(N2CCCNCC2)c1 [Compound 1F, 1-(3-Pyridyl)-homopiperazine]",,,IC50 [2]: 2 nM; IC50 [3]: 5 nM
"COc1cncc(N2CCCNCC2)c1 [Compound 1H, 1-(5-Methoxy-3-pyridyl)-homopiperazine]",,3000 nM,IC50 [2]: 2 nM; IC50 [3]: 20 nM
"Clc1ccc(N2CCCNCC2)nn1 [Compound 1K, 1-(6-Chloro-3-pyridazinyl)-homopiperazine]",,1400 nM,IC50 [2]: 10 nM; IC50 [3]: 60 nM
"c1cnnc(N2CCCNCC2)c1 [Compound 1L, 1-(3-Pyridazinyl)-homopiperazine]",,1600 nM,IC50 [2]: 30 nM; IC50 [3]: 250 nM
"COc1cncc(N2CCN(C)C2)c1 [Compound 1M, 1-(5-Methoxy-3-pyridyl)-3-methyl-imidazolidine]",,> 30000 nM,IC50 [2]: 590 nM; IC50 [3]: 8800 nM
"CCCCOc1cncc(N2CCNCC2)c1 [Compound 2D, 1-(5-Butoxy-3-pyridyl)piperazine]",,> 30000 nM,"IC50 [2, 4]: 180 nM; IC50 [3]: 1400 nM"
"CN1CCCN(c2cnc3ccccc3c2)CC1 [Compound 2E, 4-Methyl-1-(3-quinolinyl)-homopiperazine]",,1800 nM,"IC50 [2, 4]: 340 nM; IC50 [3]: 4900 nM"
"c1ccc2ncc(N3CCCNCC3)cc2c1 [Compound 2F, 1-(3-Quinolinyl)-homopiperazine]",,5900 nM,IC50 [2]: 6 nM; IC50 [3]: 84 nM
"c1ccc(-c2cncc(N3CCCNCC3)c2)cc1 [Compound 2H, 1-(5-Phenyl-3-pyridyl)-homopiperazine]",,37000 nM,"IC50 [2, 4]: 3 nM; IC50 [3]: 20 nM"
COc1cncc(N2CCCN(C)CCC2)c1 [Compound 11A],,,"IC50 [3, 5]: 1200 nM"
COc1cncc(N2CCCNC(C)CC2)c1 (centres unmarked) [Compound 11A],,> 30000 nM,IC50 [2]: 40 nM
